Data reported in patent US20260356820A1, “Pyrrolidine and Imidazolidine Based DNA Polymerase Theta Inhibitors and Use Thereof” (Thomas Jefferson University, priority 2022, published 2026).

Target: T1, human Polq polymerase domain (Homo sapiens, UniProt O75417)
T1 sequence (O75417 1792-2590): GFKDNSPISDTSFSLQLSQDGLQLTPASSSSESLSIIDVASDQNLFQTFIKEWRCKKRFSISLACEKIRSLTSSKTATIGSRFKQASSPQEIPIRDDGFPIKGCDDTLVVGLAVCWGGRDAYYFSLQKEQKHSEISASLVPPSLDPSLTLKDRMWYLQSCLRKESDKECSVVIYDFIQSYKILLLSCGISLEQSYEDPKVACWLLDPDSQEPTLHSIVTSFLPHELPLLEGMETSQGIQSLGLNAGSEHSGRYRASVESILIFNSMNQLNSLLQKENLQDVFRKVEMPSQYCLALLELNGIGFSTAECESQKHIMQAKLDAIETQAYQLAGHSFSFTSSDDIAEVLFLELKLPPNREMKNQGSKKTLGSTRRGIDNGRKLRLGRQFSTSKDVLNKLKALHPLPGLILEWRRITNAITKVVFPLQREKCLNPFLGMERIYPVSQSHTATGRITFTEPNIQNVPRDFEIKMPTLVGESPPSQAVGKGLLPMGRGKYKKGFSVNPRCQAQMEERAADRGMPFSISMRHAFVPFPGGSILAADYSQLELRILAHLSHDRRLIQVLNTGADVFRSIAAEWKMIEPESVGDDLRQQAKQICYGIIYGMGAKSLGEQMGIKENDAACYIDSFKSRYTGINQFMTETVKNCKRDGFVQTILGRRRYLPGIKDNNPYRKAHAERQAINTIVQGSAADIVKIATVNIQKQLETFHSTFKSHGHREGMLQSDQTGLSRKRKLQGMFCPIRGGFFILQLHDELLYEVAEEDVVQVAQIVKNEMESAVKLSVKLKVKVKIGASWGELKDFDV
Assay: Cy5 fluorescence assay of Polq polymerase domain inhibition
Format: biochemical
Details: not given
Protocol: The following Cy5 fluorescence assay was used to measure the ability of compounds to inhibit Polq polymerase domain in vitro. The fluorescent based assay was performed as follows: 60 nM of the pre-annealed primer-template containing a 5′ Cy5 fluorophore conjugated template strand (SEQ ID NO:3: 5′-/5Cy5/[…]-3′), a downstream complementary oligo conjugated with a 3′ Blackhole quencher (SEQ ID NO:4: 5′-CTAAGCTCACAGTG/3IAbRQSp/-3′) and a primer strand (SEQ ID NO:5: 5′-CTGTCCTGCATGATG-3′) was mixed with 50 uM 2′-deoxyribonucleoside triphosphates (dNTPs), 0.1 mg/mL Bovine serum albumin (BSA), 0.01% NP-40, 10% glycerol, 1 mM dithiothreitol (DTT), 10 mM MgCl2, 25 mM TrisHCl pH 7.8 in the presence of 2.5% DMSO with or without various concentrations (7-point dilution series) of Polq small molecule inhibitors represented by Formula I at 37 °C in a volume of 40 μL.

Row | SMILES | IC50 [nM]
1 | CN(C(=O)Oc1c(N2CCN(CCOS(N)(=O)=O)C2=O)cc(C(F)(F)F)cc1C(F)(F)F)c1ccc(F)cc1 [Example 21, 2-{2-oxo-3-[2-(sulfamoyloxy)ethyl]imidazolidin-1-yl}-4,6-bis(trifluoromethyl)phenyl N-(4-fluorophenyl)-N-methylcarbamate] | 1.9
2 | CN(C(=O)Oc1c(N2CCNC2=O)cc(C(F)(F)F)cc1C(F)(F)F)c1cc(Cl)c(F)cc1F [Example 9, 2,4-bis(trifluoromethyl)-6-(2-oxoimidazolidin-1-yl)phenyl (5-chloro-2,4-difluorophenyl)(methyl)carbamate] | 21
3 | CN(C(=O)Oc1c(N2CCN(CC3(O)CNC3)C2=O)cc(C(F)(F)F)cc1C(F)(F)F)c1ccc(F)c(Cl)c1F [Example 38, 2,4-bis(trifluoromethyl)-6-(3-((3-hydroxyazetidin-3-yl)methyl)-2-oxoimidazolidin-1-yl)phenyl (3-chloro-2,4-difluorophenyl)(methyl)carbamate] | 7.8
4 | CN(C(=O)Oc1c(N2CCN(CCN3CCOCC3)C2=O)cc(C(F)(F)F)cc1C(F)(F)F)c1ccc(F)cc1 [Example 1, 2-(3-(2-morpholinoethyl)-2-oxoimidazolidin-1-yl)-4,6-bis(trifluoromethyl)phenyl (4-fluorophenyl)(methyl)carbamate] | 12
5 | CN(C(=O)Oc1c(N2C(=O)NC(O)C2O)cc(C(F)(F)F)cc1C(F)(F)F)c1ccc(F)cc1 (stereo not shown) [Example 16, 2-(4,5-dihydroxy-2-oxoimidazolidin-1-yl)-4,6-bis(trifluoromethyl)phenyl N-(4-fluorophenyl)-N-methylcarbamate] | 5.4
6 | [2H]C([2H])([2H])N(C(=O)Oc1c(N2CCN(CC(O)CNC)C2=O)cc(C(F)(F)F)cc1C(F)(F)F)c1ccc(F)c(Cl)c1F (stereo not shown) [Example 44, 2-(3-(2-hydroxy-3-(methylamino)propyl)-2-oxoimidazolidin-1-yl)-4,6-bis(trifluoromethyl)phenyl (3-chloro-2,4-difluorophenyl)(methyl-d3)carbamate] | 7
7 | CN(C(=O)Oc1c(Cl)cc(Cl)cc1N1CCN(CCO)C1=O)c1ccc(F)cc1 [Example 55, 2,4-dichloro-6-(3-(2-hydroxyethyl)-2-oxoimidazolidin-1-yl)phenyl (4-fluorophenyl)(methyl)carbamate] | 133
8 | CN(C(=O)Oc1c(N2CCN(CCN3CCC(C#N)CC3)C2=O)cc(C(F)(F)F)cc1C(F)(F)F)c1ccc(F)cc1 [Example 3, 2-(3-(2-(4-cyanopiperidin-1-yl)ethyl)-2-oxoimidazolidin-1-yl)-4,6-bis(trifluoromethyl)phenyl (4-fluorophenyl)(methyl)carbamate] | 6
9 | CN(C(=O)Oc1c(N2CCNC2=O)cc(C(F)(F)F)cc1C(F)(F)F)c1ccc(F)cc1 [Example 4, 2,4-bis(trifluoromethyl)-6-(2-oxoimidazolidin-1-yl)phenyl (4-fluorophenyl)(methyl)carbamate] | 3.4
10 | [2H]C([2H])([2H])N(C(=O)Oc1c(N2C[C@@H](O)[C@@H](O)C2)cc(C(F)(F)F)cc1C(F)(F)F)c1ccc(F)cc1 [Example 41] | 5.5
11 | CN(C(=O)Oc1c(N2CCCC2=O)cc(C(F)(F)F)cc1C(F)(F)F)c1ccc(F)cc1 [Example 10, 2,4-bis(trifluoromethyl)-6-(2-oxopyrrolidin-1-yl)phenyl (4-fluorophenyl)(methyl)carbamate] | 21
12 | [2H]C([2H])([2H])N(C(=O)Oc1c(N2CCN(CC3(O)CNC3)C2=O)cc(C(F)(F)F)cc1C(F)(F)F)c1ccc(F)c(Cl)c1F [Example 37, 2-(3-((3-hydroxyazetidin-3-yl)methyl)-2-oxoimidazolidin-1-yl)-4,6-bis(trifluoromethyl)phenyl (3-chloro-2,4-difluorophenyl)(methyl-d3)carbamate] | 2.7
13 | Cc1cc(C(F)(F)F)cc(N2CCNC2=O)c1OC(=O)N(C)c1ccc(F)cc1 [Example 13, 2-methyl-6-(2-oxoimidazolidin-1-yl)-4-(trifluoromethyl)phenyl(4-fluorophenyl)(methyl)carbamate] | 29
14 | CN(C(=O)Oc1c(N2CCN(CCOC(F)F)C2=O)cc(C(F)(F)F)cc1C(F)(F)F)c1ccc(F)cc1 [Example 32, 2-(3-(2-(difluoromethoxy)ethyl)-2-oxoimidazolidin-1-yl)-4,6-bis(trifluoromethyl)phenyl N-(4-fluorophenyl)-N-methylcarbamate] | 2.3
15 | CN(C(=O)Oc1c(N2CCN(C3CCS(=O)(=O)C3)C2=O)cc(C(F)(F)F)cc1C(F)(F)F)c1ccc(F)cc1 (stereo not shown) [Example 35, 2-(3-(1,1-dioxidotetrahydrothiophen-3-yl)-2-oxoimidazolidin-1-yl)-4,6-bis(trifluoromethyl)phenyl (4-fluorophenyl)(methyl)carbamate] | 2.5
16 | CN(C(=O)Oc1c(N2CCN(CC3(O)CN(C(=O)OC(C)(C)C)C3)C2=O)cc(C(F)(F)F)cc1C(F)(F)F)c1ccc(F)cc1 [Example 23, tert-butyl 3-((3-(2-(((4-fluorophenyl)(methyl)carbamoyl)oxy)-3,5-bis(trifluoromethyl)phenyl)-2-oxoimidazolidin-1-yl)methyl)-3-hydroxyazetidine-1-carboxylate] | 1.8
17 | CN(C(=O)Oc1c(N2CC(C(F)(F)F)NC2=O)cc(C(F)(F)F)cc1C(F)(F)F)c1ccc(F)cc1 (stereo not shown) [Example 18, 2-(2-oxo-4-(trifluoromethyl)imidazolidin-1-yl)-4,6-bis(trifluoromethyl)phenyl (4-fluorophenyl)(methyl)carbamate] | 22
18 | CC(=O)N1CCN(CCN2CCN(c3cc(C(F)(F)F)cc(C(F)(F)F)c3OC(=O)N(C)c3ccc(F)cc3)C2=O)CC1 [Example 2, 2-(3-(2-(4-acetylpiperazin-1-yl)ethyl)-2-oxoimidazolidin-1-yl)-4,6-bis(trifluoromethyl)phenyl (4-fluorophenyl)(methyl)carbamate] | 4.5
19 | CN(C(=O)Oc1c(N2CCN(CC3CO3)C2=O)cc(C(F)(F)F)cc1C(F)(F)F)c1ccc(F)cc1 (stereo not shown) [Example 25, 2,4-bis(trifluoromethyl)-6-(3-((oxiran-2-yl)methyl)-2-oxoimidazolidin-1-yl)phenyl (4-fluorophenyl)(methyl)carbamate] | 5.8
20 | CN(C(=O)Oc1c(N2CCN(C3CC(O)C3)C2=O)cc(C(F)(F)F)cc1C(F)(F)F)c1ccc(F)cc1 (stereo not shown) [Example 34, 2-(3-(3-hydroxycyclobutyl)-2-oxoimidazolidin-1-yl)-4,6-bis(trifluoromethyl)phenyl (4-Fluorophenyl)(methyl)carbamate] | 2

Same assay, conditions: 5 nM Polq polymerase domain (residues 1792-2590), 60 nM primer-template, 50 uM dNTPs, 37 °C, 18 min; read-out: IC50 (nM) Polq

Row | SMILES | IC50 [nM]
21 | O=C1NCCN1c1cc(C(F)(F)F)cc(C(F)(F)F)c1OC(=O)N(c1ccc(F)cc1)C1CC1 [Example 31, 2,4-bis(trifluoromethyl)-6-(2-oxoimidazolidin-1-yl)phenyl cyclopropyl4-fluorophenylcarbamate] | 31
22 | [2H]C([2H])([2H])N(C(=O)Oc1c(N2CCN(CC(O)CN(C)C)C2=O)cc(C(F)(F)F)cc1C(F)(F)F)c1ccc(F)cc1 (stereo not shown) [Example 46, 2-(3-(3-(dimethylamino)-2-hydroxypropyl)-2-oxoimidazolidin-1-yl)-4,6-bis(trifluoromethyl)phenyl (4-fluorophenyl)(methyl-d3)carbamate] | 5.5
23 | [2H]C([2H])([2H])N(C(=O)Oc1c(N2CCN(C[C@@H](O)CN(C)C)C2=O)cc(C(F)(F)F)cc1C(F)(F)F)c1ccc(F)cc1 [Example 49, (S)-2-(3-(3-(dimethylamino)-2-hydroxypropyl)-2-oxoimidazolidin-1-yl)-4,6-bis(trifluoromethyl)phenyl (4-fluorophenyl)(methyl-d3)carbamate] | 7.5
24 | [2H]C([2H])([2H])N(C(=O)Oc1c(N2CCN(CC(O)CNC)C2=O)cc(C(F)(F)F)cc1C(F)(F)F)c1ccc(F)cc1 (stereo not shown) [Example 45, 2-(3-(2-hydroxy-3-(methylamino)propyl)-2-oxoimidazolidin-1-yl)-4,6-bis(trifluoromethyl)phenyl (4-fluorophenyl)(methyl-d3)carbamate] | 6.1
25 | CN(C(=O)Oc1c(N2CCNC2=O)cc(C(F)(F)F)cc1C(F)(F)F)c1ccccc1CC#N [Example 33, 2,4-bis(trifluoromethyl)-6-(2-oxoimidazolidin-1-yl)phenyl 2-(cyanomethyl)phenylmethylcarbamate] | 590
